One experiment addresses sigma-1 (σ1) receptors (Homo sapiens, UniProt Q99720). Particulars: statement on literature knowledge; cited from earlier work.
Experiment [1] has as its system obese (diet-induced obesity) wild type mice. The experiment can be described thus: Triglyceride levels in blood of high fat diet-fed obese mice after 9 days of treatment. The class given is in vivo. The note with it: male C57BL/6J mice on high fat diet, 50 mg/Kg s.c., once a day, blood on day 10, mean±standard deviation, p<0.05 vs vehicle control (91.75±32.88). The method, then:
Pharmacologic approach: Treatment of obese (diet-induced obesity) wild type mice with a sigma-1 receptor antagonist results in a significant reduction in the concentration of triglycerides in blood.
Wild type male mice from the C57BL/6J strain were used in these experiments. Mice of 8-10 weeks of age were fed for two months with high fat diet (49% fat content; Harlan Ibérica, TD97366). Treatment was administered subcutaneously, once a day, for 9 days. Treated animals received daily (for 9 days) a single dose of 50 mg/kg of BD-1063 (a sigma-1 receptor antagonist). Control animals received daily vehicle (saline). During the period of treatment, mice had free access to water and food (high fat diet). At the end of the treatment, on day 10, blood samples were obtained through intracardiac puncture and triglyceride levels were measured using the Cholestech LDX blood analyzer. Student t test was applied to determine statistical significance.
Values are means±standard deviation. Units are expressed as mg/100 mL.

Structures are written as SMILES.

Chain of sigma-1 (σ1) receptors (Q99720 whole entry): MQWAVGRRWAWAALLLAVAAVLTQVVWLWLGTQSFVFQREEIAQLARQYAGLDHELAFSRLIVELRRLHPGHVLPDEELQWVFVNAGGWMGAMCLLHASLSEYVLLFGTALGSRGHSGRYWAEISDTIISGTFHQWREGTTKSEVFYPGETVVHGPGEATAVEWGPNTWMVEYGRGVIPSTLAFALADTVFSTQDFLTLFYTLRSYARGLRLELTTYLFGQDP

In the case of `CC(C)=CCN1CCC2(C)c3cc(O)ccc3CC1C2C` (centres unmarked) [pentazocine], the “affinity of sigma-1 receptors” value at sigma-1 (σ1) receptors is “very high affinity”.

For the compound `CN1CCN(CCc2ccc(Cl)c(Cl)c2)CC1` [BD-1063], the “Triglyceride Levels” value in experiment [1] was 56.8±9.41 mg/100 mL.

These data come from patent US20090181976A1, “Use of Compounds Binding to the Sigma Receptor for the Treatment of Metabolic Syndrome” (priority 2006, published 2009).
